Drawing on US8791102B2, “Acetanilide sphingosine-1-phosphate receptor antagonists” (Exelixis, Inc., priority 2008, dated 2014), this text covers IC50 for 33 compounds.

This assay addresses T1, human S1P1 receptors (Homo sapiens, UniProt P21453).
T1 construct: host or cells: HEK293
Put plainly: S1P1R antagonist assay (fluorescent membrane potential dye, cAMP readout). Type of assay: cell-based. Particulars: HEK293 cells expressing human S1P1 receptors and CNG channel; 500 nM NECA; S1P1R agonist 10 nM; 90 minutes; read-out: EC50 or IC50 value.

T1 sequence (P21453 whole entry): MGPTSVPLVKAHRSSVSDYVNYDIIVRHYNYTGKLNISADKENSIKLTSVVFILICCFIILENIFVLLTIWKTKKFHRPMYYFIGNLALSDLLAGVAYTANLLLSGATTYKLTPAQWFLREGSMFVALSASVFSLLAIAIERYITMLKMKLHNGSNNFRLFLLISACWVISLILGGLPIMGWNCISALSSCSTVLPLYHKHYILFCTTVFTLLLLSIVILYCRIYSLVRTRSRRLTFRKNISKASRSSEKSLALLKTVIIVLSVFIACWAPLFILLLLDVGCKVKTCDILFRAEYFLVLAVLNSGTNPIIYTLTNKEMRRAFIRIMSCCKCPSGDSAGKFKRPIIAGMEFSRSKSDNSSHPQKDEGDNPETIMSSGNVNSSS

`CCOCC(=O)N1C[C@H](Cc2ccccc2)C[C@H]1C(=O)Nc1ccc(Oc2ccc(F)cc2)cc1` [Compound 121, (2S,4R)-4-benzyl-1-(2-ethoxyacetyl)-N-(4-(4-fluorophenoxy)phenyl)pyrrolidine-2-carboxamide]: the IC50 (usually the concentration that gives 50% inhibition) was no more than 0.3 µM.

`Cc1ccc(C[C@@H]2C[C@@H](C(=O)Nc3ccc(Oc4ccc(F)cc4)cc3)N(C(=O)Cn3ccnn3)C2)cc1` [Compound 3]: the IC50 is no more than 0.3 µM.

Turning to `O=C(Cn1ccnn1)N[C@@H](COCc1ccccc1)C(=O)Nc1ccc(Oc2ccc(F)cc2)cc1` [Compound 174, (S)-2-(2-(1H-1,2,3-triazol-1-yl)acetamido)-3-(benzyloxy)-N-(4-(4-fluorophenoxy)phenyl)propanamide], the IC50 was no more than 0.3 µM.

For `O=C(Cc1cc(Cl)ccc1F)NC(COCc1ccccc1)C(=O)Nc1ccc(Oc2ccccc2)cc1` (stereo not drawn) [Compound 192, 3-(benzyloxy)-2-(2-(5-chloro-2-fluorophenyl)acetamido)-N-(4-phenoxyphenyl)propanamide], the IC50 was 0.3 to 1 µM.

On to `O=C(Nc1ccc(Oc2ccc(F)cc2)cc1)[C@@H]1C[C@@H](Cc2cccc(F)c2)CN1C(=O)Cn1cncn1` [Compound 51, (2S,4R)-1-(2-(1H-1,2,4-triazol-1-yl)acetyl)-4-(3-fluorobenzyl)-N-(4-(4-fluorophenoxy)phenyl)pyrrolidine-2-carboxamide], for which the IC50 was no more than 0.3 µM.

Consider `Cc1noc(C)c1NC(=O)N[C@@H](COCc1ccccc1)C(=O)Nc1ccc(Oc2ccc(F)cc2)cc1` [Compound 172, (S)-2-(3-(3,5-dimethylisoxazol-4-yl)ureido)-3-benzyloxy-N-(4-(4-fluorophenoxy)phenyl)propanamide], for which the IC50 was no more than 0.3 µM.

In the case of `O=C(Cc1ccccc1F)NC(COCc1ccccc1)C(=O)Nc1ccc(Oc2ccccc2)cc1` (stereo not drawn) [Compound 183, 3-(benzyloxy)-2-(2-(2-fluorophenyl)acetamido)-N-(4-phenoxyphenyl)propanamide], the IC50 was in the range of 0.3 to 1 µM.

Consider `O=C(NC(COCc1ccccc1)C(=O)Nc1ccc(Oc2ccccc2)cc1)c1cccc2[nH]ccc12` (stereo not drawn) [Compound 184, N-(3-(benzyloxy)-1-oxo-1-(4-phenoxyphenylamino)propan-2-yl)-1H-indole-4-carboxamide], for which the IC50 lay in the range of 0.3 to 1 µM.

Consider `CSCCC(=O)N1C[C@H](Cc2ccccc2)C[C@H]1C(=O)Nc1ccc(Oc2ccc(F)cc2)cc1` [Compound 85, (2S,4R)-4-benzyl-N-(4-(4-fluorophenoxy)phenyl)-1-(3-(methylthio)propanoyl)pyrrolidine-2-carboxamide], for which the IC50 was no more than 0.3 µM.

In the case of `O=C(CC[N+](=O)[O-])N[C@@H](COCc1ccccc1)C(=O)Nc1ccc(Oc2ccc(F)cc2)cc1` [Compound 245, (S)-3-(benzyloxy)-N-(4-(4-fluorophenoxy)phenyl)-2-(3-nitropropanamido)propanamide], the IC50 was no more than 0.3 µM.

As for `O=C(Cc1c[nH]cn1)N[C@@H](COCc1ccccc1)C(=O)Nc1ccc(Oc2ncc(Br)s2)cc1` [Compound 156, (S)-2-(2-(1H-imidazol-4-yl)acetamido)-3-(benzyloxy)-N-(4-(5-bromothiazol-2-yloxy)phenyl)propanamide], the IC50 is no more than 0.3 µM.

In the case of `Cc1cn(CC(=O)N[C@@H](COCc2ccccc2)C(=O)Nc2ccc(Oc3ccc(F)cc3)cc2)nn1` [Compound 153, (S)-3-(benzyloxy)-N-(4-(4-fluorophenoxy)phenyl)-2-(2-(4-methyl-1H-1,2,3-triazol-1-yl)acetamido)propanamide], the IC50 was no more than 0.3 µM.

`O=C(Nc1ccc(Oc2ccc(F)cc2)cc1)[C@@H]1C[C@@H](Cc2ccccc2)CN1C(=O)Cn1cncn1` [Compound 140, (2S,4R)-1-(2-(1H-1,2,4-triazol-1-yl)acetyl)-4-benzyl-N-(4-(4-fluorophenoxy)phenyl)pyrrolidine-2-carboxamide]: the IC50 is no more than 0.3 µM.

Regarding `COc1cccc2cc(C(=O)NC(COCc3ccccc3)C(=O)Nc3ccc(Oc4ccccc4)cc3)oc12` (stereo not drawn) [Compound 367, 7-(methyloxy)-N-(2-oxo-1-{[(phenylmethyl)oxy]methyl}-2-{[4-(phenyloxy)phenyl]amino}ethyl)-1-benzofuran-2-carboxamide], the concentration for half-maximal inhibition (IC50) is greater than 1 µM.

As for `O=C(Cc1cnc[nH]1)N[C@@H](CCCc1ccccc1)C(=O)Nc1ccc(Oc2ccc(F)cc2)cc1` [Compound 137, (S)-2-(2-(1H-imidazol-5-yl)acetamido)-5-phenyl-N-(4-(4-fluorophenoxy)phenyl)pentanamide], the IC50 is no more than 0.3 µM.

For the compound `O=C(Nc1ccc(Oc2ccc(F)cc2)cc1)[C@@H]1C[C@@H](Cc2ccc(F)cc2Cl)CN1C(=O)Cn1cncn1` [Compound 9, (2S,4R)-1-(2-(1H-1,2,4-triazol-1-yl)acetyl)-4-(2-chloro-4-fluorobenzyl)-N-(4-(4-fluorophenoxy)phenyl)pyrrolidine-2-carboxamide], the IC50 is no more than 0.3 µM.

`O=C(CN1CCN(c2ncccn2)CC1)N[C@@H](COCc1ccccc1)C(=O)Nc1ccc(Oc2ccc(F)cc2)cc1` [Compound 41, (S)-3-(benzyloxy)-N-(4-(4-fluorophenoxy)phenyl)-2-(2-(4-(pyrimidin-2-yl)piperazin-1-yl)acetamido)propanamide]: the concentration for half-maximal inhibition (IC50) is greater than 1 µM.

In the case of `N#Cc1ccc(C(=O)NC(COCc2ccccc2)C(=O)Nc2ccc(Oc3ccccc3)cc2)cc1` (stereo not drawn) [Compound 380, 4-cyano-N-(2-oxo-1-{[(phenylmethyl)oxy]methyl}-2-{[4-(phenyloxy)phenyl]amino}ethyl)benzamide], the IC50 was greater than 1 µM.

`O=C(NC(COCc1ccccc1)C(=O)Nc1ccc(Oc2ccccc2)cc1)C1CCOC1` (stereo not drawn) [Compound 336, N-(2-oxo-1-{[(phenylmethyl)oxy]methyl}-2-{[4-(phenyloxy)phenyl]amino}ethyl)tetrahydrofuran-3-carboxamide]: the IC50 is no more than 0.3 µM.

For the compound `CC(C)(C(=O)N[C@@H](COCc1ccccc1)C(=O)Nc1ccc(Oc2ccc(F)cc2)cc1)n1cncn1` [Compound 255, (S)-3-(benzyloxy)-N-(4-(4-fluorophenoxy)phenyl)-2-(2-methyl-2-(1H-1,2,4-triazol-1-yl)propanamido)propanamide], the IC50 fell in the range of 0.3 to 1 µM.

`O=C(Cc1cc(Cl)ccc1Cl)N[C@@H](COCc1ccccc1)C(=O)Nc1ccc(Oc2ccccc2)cc1` [Compound 199, (S)-2-(2-(2,5-dichlorophenyl)acetamido)-3-benzyloxy-N-(4-phenoxyphenyl)propanamide]: the IC50 lay in the range of 0.3 to 1 µM.

In the case of `O=C(Nc1ccc(Oc2ccc(F)cc2)cc1)[C@@H]1C[C@@H](Cc2ccccc2F)CN1C(=O)Cn1cncn1` [Compound 106, (2S,4R)-1-(2-(1H-1,2,4-triazol-1-yl)acetyl)-4-(2-fluorobenzyl)-N-(4-(4-fluorophenoxy)phenyl)pyrrolidine-2-carboxamide], the IC50 is no more than 0.3 µM.

Regarding `O=C(CN1CCc2ccccc2C1)N[C@@H](COCc1ccccc1)C(=O)Nc1ccc(Oc2ccc(F)cc2)cc1` [Compound 221, (S)-3-(benzyloxy)-2-(2-(3,4-dihydroisoquinolin-2(1H)-yl)acetamido)-N-(4-(4-fluorophenoxy)phenyl)propanamide], the IC50 fell in the range of 0.3 to 1 µM.

As for `CC(=O)NCCC[C@H](NC(=O)Cn1cncn1)C(=O)Nc1ccc(Oc2ccc(F)cc2)cc1` [Compound 254, (S)-2-(2-(1H-1,2,4-triazol-1-yl)acetamido)-5-acetamido-N-(4-(4-fluorophenoxy)phenyl)pentanamide], the IC50 is no more than 0.3 µM.

With `Cc1cc(F)ccc1C[C@@H]1C[C@@H](C(=O)Nc2ccc(Oc3ccc(F)cc3)cc2)N(C(=O)Cn2cncn2)C1` [Compound 8, (2S,4R)-1-(2-(1H-1,2,4-triazol-1-yl)acetyl)-4-(4-fluoro-2-methylbenzyl)-N-(4-(4-fluorophenoxy)phenyl)pyrrolidine-2-carboxamide], the IC50 is no more than 0.3 µM.

Turning to `O=C(NC(COCc1ccccc1)C(=O)Nc1ccc(Oc2ccccc2)cc1)c1cc(F)cc(C(F)(F)F)c1` (stereo not drawn) [Compound 398, 3-fluoro-N-(2-oxo-1-{[(phenylmethyl)oxy]methyl}-2-{[4-(phenyloxy)phenyl]amino}ethyl)-5-(trifluoromethyl)benzamide], the IC50 was greater than 1 µM.

For the compound `O=C(CN1CCN(c2ccccc2)CC1)N[C@@H](COCc1ccccc1)C(=O)Nc1ccc(Oc2ccc(F)cc2)cc1` [Compound 225, (S)-3-(benzyloxy)-N-(4-(4-fluorophenoxy)phenyl)-2-(2-(4-phenylpiperazin-1-yl)acetamido)propanamide], the IC50 was in the range of 0.3 to 1 µM.

In the case of `CCOCCC(=O)N1C[C@H](Cc2ccccc2)C[C@H]1C(=O)Nc1ccc(Oc2ccc(F)cc2)cc1` [Compound 86, (2S,4R)-4-benzyl-1-(3-ethoxypropanoyl)-N-(4-(4-fluorophenoxy)phenyl)pyrrolidine-2-carboxamide], the IC50 was no more than 0.3 µM.

For `O=C(NC(COCc1ccccc1)C(=O)Nc1ccc(Oc2ccccc2)cc1)c1cccnc1Cl` (stereo not drawn) [Compound 296, 2-chloro-N-(2-oxo-1-{[(phenylmethyl)oxy]methyl}-2-{[4-(phenyloxy)phenyl]amino}ethyl)pyridine-3-carboxamide], the IC50 is greater than 1 µM.

As for `CN(CC(=O)N[C@@H](COCc1ccccc1)C(=O)Nc1ccc(Oc2ccccc2)cc1)C(=O)c1ccccc1` [Compound 194, (S)-2-{2-((benzoyl)(methyl)amino)acetamido}-3-benzyloxy-N-(4-phenoxyphenyl)propanamide], the IC50 lay within 0.3 to 1 µM.

For the compound `O=C(CCCC(=O)c1ccccc1)NC(COCc1ccccc1)C(=O)Nc1ccc(Oc2ccccc2)cc1` (stereo not drawn) [Compound 318, 5-oxo-N-(2-oxo-1-{[(phenylmethyl)oxy]methyl}-2-{[4-(phenyloxy)phenyl]amino}ethyl)-5-phenylpentanamide], the IC50 was greater than 1 µM.

Turning to `O=C(NC(COCc1ccccc1)C(=O)Nc1ccc(Oc2ccccc2)cc1)c1ccc(-c2cccc(C(F)(F)F)c2)o1` (stereo not drawn) [Compound 321, N-(2-oxo-1-{[(phenylmethyl)oxy]methyl}-2-{[4-(phenyloxy)phenyl]amino}ethyl)-5-[3-(trifluoromethyl)phenyl]furan-2-carboxamide], the IC50 is greater than 1 µM.

For the compound `O=C(Cc1cncnc1)N[C@@H](COCc1ccccc1)C(=O)Nc1ccc(Oc2ccc(F)cc2)cc1` [Compound 250, (S)-3-(benzyloxy)-N-(4-(4-fluorophenoxy)phenyl)-2-(2-(pyrimidin-5-yl)acetamido)propanamide], the IC50 is no more than 0.3 µM.
